Measured values: patent US20160030369A1, “FKBP52 TARGETING AGENT PHARMACEUTICAL COMPOSITIONS” (THE UNITED STATES OF AMERICA AS REPRESENTED BY THE …, priority 2013, published 2016)
In brackets after ≈: the same amount, converted by molar mass. Like-named read-outs stand apart in the source and are kept apart here.

What was measured:
[1] = Short-term (bench-top) and frozen storage stability of MJC13 in rat plasma and rat urine; type: in vitro ADME
Method: Short-term stability (bench-top stability) of MJC13 in rat plasma and rat urine were evaluated by analyzing triplicates of QC samples at low, medium, and high concentrations. Plasma samples were removed from frozen storage (−20° C.) and remained on the bench-top for 2, 4, or 6 hours. All of those samples were compared with freshly prepared samples at the same concentrations. […] Another set of plasma samples were stored at −80° C. for 7 days.
The stability of MJC13 in rat urine was conducted in the same fashion as in rat plasma.

[2] = Processed sample (autosampler) stability of MJC13 rat plasma and urine extracts; type: physicochemical; details: for average recoveries: acetonitrile with IS; for recoveries: acetonitrile without IS
Method: Processed sample stability (on-instrument or autosampler stability) of MJC13 rat plasma extracts and rat urine extracts were evaluated by analyzing QC samples at low, medium, and high concentrations. Two sets of plasma samples were extracted with acetonitrile with and without IS, respectively. The plasma extracts were kept in the autosampler for 2, 4, or 6 hours, before injecting into the LC-MS/MS. All of those samples were compared with freshly prepared samples at the same concentrations.

[3] = Solubility of MJC13 in various solvents, shake-flask method; type: physicochemical; details: thermodynamic from solid
Method: The solubility of MJC13 was evalulated. Because there is no ionizable functional group on the molecular structure, the solubility of MJC13 was expected to be low in water and barely affected by pH. In this work, the solubility of MJC13 in water, ethanol, propylene glycol, polyethylene glycol 400 (PEG 400), polysorbate 80 (Tween 80), olive oil, peanut oil, soybean oil, CAPTEX 200 and LABRAFAC Lipophile WL1349 was determined by a shake-flask method. Briefly, an excess amount of MJC13 was added to each capped glass bottle containing the selected vehicle and mixed for 48 hours at room temperature using a reciprocating shaker. The samples were centrifuged at 3000 rpm for 10 minutes and were subsequently filtered through a 0.22 μm ultrafiltration unit. The filtrates were analyzed by LC/MS/MS to determine the concentration of drug dissolved. The experiments were conducted in triplicate.

[4] = Solubility of MJC13 in 50% (w/v) HP-β-CD aqueous solution; type: physicochemical
Method: An excess amount of MJC13 was added to a sealed glass vial (2 ml) containing saturated (50% w/v) 2-hydroxypropyl-β-cyclodextrin (HP-β-CD) aqueous solution. The vial was shaken at room temperature for 72 hours. Thereafter, the solution was centrifuged, filtered through a 0.2 μm membrane and analyzed for MJC13 by the LC/MS/MS method of Example 1. Experiments were conducted in triplicate. […] It is believed that the resulting pharmaceutical composition has improved biocompatibility because it lacks TWEEN 80 (polysorbate 80).

[5] = Solubility of MJC13 in various solvents, shake-flask method; type: physicochemical; details: DMSO, organic solvent or mixture
[6] = system: AR; details: cellular models of prostate cancer, micromolar concentrations; cited from earlier work
[7] = rat plasma extract, autosampler 2 hours
[8] = rat plasma extract, autosampler 4 hours
[9] = rat plasma extract, autosampler 6 hours
[10] = rat urine extract, autosampler 2 hours
[11] = rat urine extract, autosampler 4 hours
[12] = rat urine extract, autosampler 6 hours

**Q.** For O=C(Nc1cccc(Cl)c1Cl)C1CCCCC1 [MJC13], which “average MJC13 amount remaining” value ([1]; rat plasma, bench-top, 2 hours) is on record?
**A.** 98.6±1.7%

**Q.** What about the “average MJC13 amount remaining” value ([1]; rat plasma, bench-top, 4 hours) of the same molecule?
**A.** 97.6±2.0%

**Q.** What about the “average MJC13 amount remaining” value ([1]; rat plasma, bench-top, 6 hours) of the same molecule?
**A.** 97.4±1.2%

**Q.** And the average recoveries ([1]; rat plasma, stored at −80° C. for 7 days)?
**A.** 96.4±1.4%

**Q.** And the “average MJC13 amount remaining” value ([1]; rat urine, bench-top, 2 hours)?
**A.** 97.9±2.5%

**Q.** And the “average MJC13 amount remaining” value ([1]; rat urine, bench-top, 4 hours)?
**A.** 99.1±1.9%

**Q.** What about the “average MJC13 amount remaining” value ([1]; rat urine, bench-top, 6 hours) of the same molecule?
**A.** 96.7±2.8%

**Q.** What about the “average MJC13 amount remaining” value ([1]; rat urine, stored at −80° C. for 7 days) of the same molecule?
**A.** 95.9±2.7%

**Q.** And the average recoveries [2, 7]?
**A.** 97.6±1.3%

**Q.** And the average recoveries [2, 8]?
**A.** 98.3±1.5%

**Q.** What about the average recoveries [2, 9] of the same molecule?
**A.** 96.7±0.7%

**Q.** What about the recoveries [2, 7] of the same molecule?
**A.** 96.1±1.3%

**Q.** What about the recoveries [2, 8] of the same molecule?
**A.** 97.6±1.1%

**Q.** What about the recoveries [2, 9] of the same molecule?
**A.** 97.7±2.4%

**Q.** And the average recoveries [2, 10]?
**A.** 95.8±3.2%

**Q.** What about the average recoveries [2, 11] of the same molecule?
**A.** 98.6±2.5%

**Q.** What about the average recoveries [2, 12] of the same molecule?
**A.** 97.9±1.7%

**Q.** What about the recoveries [2, 10] of the same molecule?
**A.** 97.4±2.2%

**Q.** And the recoveries [2, 11]?
**A.** 97.1±1.9%

**Q.** And the recoveries [2, 12]?
**A.** 96.4±3.3%

**Q.** And the solubility at 48 h ([3]; Captex 200, oil or lipid, Captex ® 200, room temperature, read-out: Solubility)?
**A.** 31.9 ± 1.6 mg/mL (≈ 117 mM)

**Q.** And the solubility at 48 h ([3]; Labrafac Lipophile WL1349, oil or lipid, Labrafac ™ Lipophile WL1349, room temperature, read-out: Solubility)?
**A.** 24 ± 1.1 mg/mL (≈ 88.2 mM)

**Q.** And the solubility at 48 h ([3]; PEG 400, organic solvent or mixture, PEG 400, room temperature, read-out: Solubility)?
**A.** 23 ± 0.7 mg/mL (≈ 84.5 mM)

**Q.** And the solubility at 48 h ([3]; ethanol, organic solvent or mixture, Ethanol, room temperature, read-out: Solubility)?
**A.** 35.6 ± 1.8 mg/mL (≈ 131 mM)

**Q.** What about the solubility at 48 h ([3]; olive oil, oil or lipid, Olive oil, room temperature, read-out: Solubility) of the same molecule?
**A.** 16.2 ± 0.3 mg/mL (≈ 59.5 mM)

**Q.** What about the solubility at 48 h ([3]; peanut oil, oil or lipid, Peanut oil, room temperature, read-out: Solubility) of the same molecule?
**A.** 15.6 ± 0.4 mg/mL (≈ 57.3 mM)

**Q.** What about the solubility at 48 h ([3]; polysorbate 80 (Tween 80), organic solvent or mixture, Polysorbate 80, room temperature, read-out: Solubility) of the same molecule?
**A.** 28.2 ± 0.7 mg/mL (≈ 104 mM)

**Q.** And the solubility at 48 h ([3]; propylene glycol, organic solvent or mixture, Propylene glycol, room temperature, read-out: Solubility)?
**A.** 5.7 ± 0.2 mg/mL (≈ 20.9 mM)

**Q.** What about the solubility at 48 h ([3]; soybean oil, oil or lipid, Soybean oil, room temperature, read-out: Solubility) of the same molecule?
**A.** 17.3 ± 0.5 mg/mL (≈ 63.6 mM)

**Q.** And the solubility at 48 h ([3]; water, Water, room temperature, read-out: Solubility)?
**A.** 0.00028 mg/mL (≈ 0.00103 mM)

**Q.** And the solubility at 48 h ([3]; water, water, room temperature, read-out: water solubility)?
**A.** 0.00028 mg/mL (≈ 0.00103 mM)

**Q.** What about the solubility at 72 h ([4]; 50% (w/v) HP-β-CD aqueous solution, aqueous with cosolvent or surfactant or cyclodextrin, thermodynamic from solid, room temperature, 72 hours) of the same molecule?
**A.** 2600 ± 300 µg/mL (≈ 9.55 mM)

**Q.** What about the “increase of solubility compared to MJC13 itself in pure water” value ([4]; 50% (w/v) HP-β-CD solution vs pure water) of the same molecule?
**A.** 10,000 fold

**Q.** What about the solubility [5] of the same molecule?
**A.** > 100 mg/mL

**Q.** And the “block of AR-dependent gene expression” value [6]?
**A.** effectively block AR-dependent gene expression
